pIC50: −log10 of the molar value.

For orientation: pIC50 means −log10 of the IC50, conventionally taken in molar units. The low end stands for a high IC50, the high end for a low IC50.

The test deals with human TrkA receptor (Homo sapiens (Human), UniProt P04629). Briefly: TrkA functional activity, DiscoverX PathHunter assay. It is filed as cell-based. As to conditions: U2OS cells expressing human TrkA-PK, Shc1-EA and p75NTR; compound 1 h, then NGF at ~80% of maximal response for 3 h; luminescence.
Sequence of human TrkA receptor (P04629 33-796): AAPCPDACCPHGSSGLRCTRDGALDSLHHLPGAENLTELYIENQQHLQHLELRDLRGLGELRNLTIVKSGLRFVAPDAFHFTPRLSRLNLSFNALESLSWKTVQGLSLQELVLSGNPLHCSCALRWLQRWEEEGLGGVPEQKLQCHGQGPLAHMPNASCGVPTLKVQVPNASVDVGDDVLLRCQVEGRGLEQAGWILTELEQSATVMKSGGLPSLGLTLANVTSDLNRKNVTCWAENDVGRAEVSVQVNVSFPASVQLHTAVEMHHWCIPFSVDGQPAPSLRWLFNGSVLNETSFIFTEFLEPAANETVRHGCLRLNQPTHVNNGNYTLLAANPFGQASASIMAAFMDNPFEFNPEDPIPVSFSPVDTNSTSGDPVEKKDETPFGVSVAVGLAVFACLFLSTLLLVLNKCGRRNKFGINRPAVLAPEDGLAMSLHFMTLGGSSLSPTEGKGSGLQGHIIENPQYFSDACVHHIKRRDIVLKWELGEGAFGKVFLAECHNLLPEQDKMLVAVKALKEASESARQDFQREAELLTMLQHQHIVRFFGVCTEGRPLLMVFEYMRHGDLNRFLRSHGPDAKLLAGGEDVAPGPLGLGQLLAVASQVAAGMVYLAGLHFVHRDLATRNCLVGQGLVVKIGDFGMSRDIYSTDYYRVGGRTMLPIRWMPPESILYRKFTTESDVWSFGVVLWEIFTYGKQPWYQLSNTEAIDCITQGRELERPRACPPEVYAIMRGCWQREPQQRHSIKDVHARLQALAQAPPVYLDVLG
Description: TrkA functional activity was measured using a DiscoverX PathHunter assay. In this assay, U2OS cells express the human TrkA receptor as a fusion with the weakly complementing fragment of B-galactosidase, which DiscoverX calls “Prolink (PK)”; additionally, Shc1 is fused with a larger fragment, which is called “Enzyme Acceptor (EA)”. Activation of the TrkA receptor, upon NGF addition, results in the kinase domain being phosphorylated, resulting in subsequent recruitment of Shc1-EA protein. That recruitment results in an active B-galactosidase enzyme that is detected by addition of a chemiluminescent substrate. The human p75^NTR protein was also expressed as a co-receptor for NGF.
All reagents were purchased from DiscoverX, except for the receptor agonists (NGF, BDNF, NT3) which were purchased from Peprotech. Cells were expanded and frozen into cryovials, and stored in the vapor phase of liquid nitrogen, and thawed immediately before use. Thawed cells were added to a 384-well plate at 7500 cells/well, and allowed to incubate overnight. Compound at various concentrations was added the following morning and allowed to incubate on cells for 1 h. Then, NGF was added at a concentration sufficient to elicit ˜80% of a maximal response and allowed to incubate for 3 h at ambient temperature. DiscoverX PathHunter detection reagent was then added and the plate was further incubated for 1 h in the dark. The plate was then read via luminescence on the Perkin Elmer Envision.
Molecule `Cn1ccc(-c2cc(C(=O)Nc3c4ncc(C(C)(C)O)cc4nn3-c3ccccc3)ccc2C(F)(F)F)n1` [Compound 48, N-[6-(1-hydroxy-1-methylethyl)-2-phenyl-2H-pyrazolo[4,3-b]pyridin-3-yl]-3-(1-methyl-1H-pyrazol-3-yl)-4-(trifluoromethyl)benzamide] had a pIC50 of 8.28. `O=C(Nc1c2cc(C3(O)CC3)ccc2nn1-c1ccccc1)c1cc(-c2ncccn2)c(C(F)(F)F)cc1F` [Compound 50, 2-Fluoro-N-(5-(1-hydroxycyclopropyl)-2-phenyl-2H-indazol-3-yl)-5-(pyrimidin-2-yl)-4-(trifluoromethyl)benzamide] had a pIC50 of 8.80. With `Cn1ccc(-c2cc(C(=O)Nc3c4cc(C5(O)CC5)ccc4nn3-c3ccccc3)ccc2C(F)(F)F)n1` [Compound 51, N-[5-(1-hydroxycyclopropyl)-2-phenyl-2H-indazol-3-yl]-3-(1-methyl-1H-pyrazol-3-yl)-4-(trifluoromethyl)benzamide], the pIC50 is 8.19. For `O=C(Nc1c2ccc(CCO)cc2nn1-c1ccccc1)c1cc(-c2ncccn2)c(C(F)(F)F)cc1F` [Compound 60, 2-Fluoro-N-(6-(2-hydroxyethyl)-2-phenyl-2H-indazol-3-yl)-5-(pyrimidin-2-yl)-4-(trifluoromethyl)benzamide], the pIC50 was 8.66. The result for `O=C(Nc1c2cc(CCO)ccc2nn1-c1ccccc1)c1cc(-c2ncccn2)c(C(F)(F)F)cc1F` [Compound 61, 2-fluoro-N-[5-(2-hydroxyethyl)-2-phenyl-2H-indazol-3-yl]-5-pyrimidin-2-yl-4-(trifluoromethyl)benzamide] reads 8.51. `NCc1cnc2c(NC(=O)c3cc(-c4ncccn4)c(C(F)(F)F)cc3F)n(-c3ccccc3)nc2c1` [Compound 66, N-(6-(Aminomethyl)-2-phenyl-2H-pyrazolo[4,3-b]pyridin-3-yl)-2-fluoro-5-(pyrimidin-2-yl)-4-(trifluoromethyl)benzamide] had a negative logarithm of the IC50 (pIC50) of 7.15. The result for `CN(C)Cc1ccc2nn(-c3ccccc3)c(NC(=O)c3ccc(C(F)(F)F)c(-c4ccn(C)n4)c3)c2c1` [Compound 68, N-{5-[(dimethylamino)methyl]-2-phenyl-2H-indazol-3-yl}-3-(1-methyl-1H-pyrazol-3-yl)-4-(trifluoromethyl)benzamide] reads 7.68; that for `Cn1ccc(-c2cc(C(=O)Nc3c4ccc(CN)cc4nn3-c3ccccc3)c(F)cc2C(F)(F)F)n1` [Compound 71, N-[6-(aminomethyl)-2-phenyl-2H-indazol-3-yl]-2-fluoro-5-(1-methyl-1H-pyrazol-3-yl)-4-(trifluoromethyl)benzamide], 8.74; that for `Cn1ccc(-c2cc(C(=O)Nc3c4ccc(CNCCO)cc4nn3-c3ccccc3)c(F)cc2C(F)(F)F)n1` [Compound 72, 2-fluoro-N-(6-{[(2-hydroxyethyl)amino]methyl}-2-phenyl-2H-indazol-3-yl)-5-(1-methyl-1H-pyrazol-3-yl)-4-(trifluoromethyl)benzamide], 8.19. The result for `NC(=O)c1ccc2c(NC(=O)c3cc(-c4ncccn4)c(C(F)(F)F)cc3F)n(-c3ccccc3)nc2c1` [Compound 73, 3-(2-Fluoro-5-(pyrimidin-2-yl)-4-(trifluoromethyl)benzamido)-2-phenyl-2H-indazole-6-carboxamide] reads 8.51. The result for `Cn1ccc(-c2cc(C(=O)Nc3c4ccc(C(N)=O)cc4nn3-c3ccccc3)c(F)cc2C(F)(F)F)n1` [Compound 74, 3-(2-Fluoro-5-(1-methyl-1H-pyrazol-3-yl)-4-(trifluoromethyl)benzamido)-2-phenyl-2H-indazole-6-carboxamide] reads 9.24; that for `NC(=O)c1cnc2c(NC(=O)c3cc(-c4ncccn4)c(C(F)(F)F)cc3F)n(-c3ccccc3)nc2c1` [Compound 75, 3-(2-Fluoro-5-(pyrimidin-2-yl)-4-(trifluoromethyl)benzamido)-2-phenyl-2H-pyrazolo[4,3-b]pyridine-6-carboxamide], 8.14; that for `NC(=O)c1cc2nn(-c3ccccc3)c(NC(=O)c3cc(-c4ncccn4)c(C(F)(F)F)cc3F)c2cn1` [Compound 76, 3-(2-Fluoro-5-(pyrimidin-2-yl)-4-(trifluoromethyl)benzamido)-2-phenyl-2H-pyrazolo[4,3-c]pyridine-6-carboxamide], 7.44.

Molecule `Cc1ccccc1-n1nc2cc(C(N)=O)ccc2c1NC(=O)c1cc(-c2ccn(C)n2)c(C(F)(F)F)cc1F` [Compound 77, 3-(2-Fluoro-5-(1-methyl-1H-pyrazol-3-yl)-4-(trifluoromethyl)benzamido)-2-(o-tolyl)-2H-indazole-6-carboxamide] gave a pIC50 of 8.89. This pIC50 lies 1.45 log units higher than the previous one.

In turn, `NC(=O)c1ccc2c(NC(=O)c3cc(-c4cc[nH]n4)c(C(F)(F)F)cc3F)n(-c3ccccc3)nc2c1` [Compound 78, 3-({[2-fluoro-5-(1H-pyrazol-3-yl)-4-(trifluoromethyl)phenyl]carbonyl}amino)-2-phenyl-2H-indazole-6-carboxamide] showed a pIC50 of 8.44. Against the preceding molecule, the pIC50 is 0.45 log units lower.

`Cn1ccc(-c2cc(C(=O)Nc3c4cc(C(N)=O)ccc4nn3-c3ccccc3)ccc2C(F)(F)F)n1` [Compound 79, 3-({[3-(1-methyl-1H-pyrazol-3-yl)-4-(trifluoromethyl)phenyl]carbonyl}amino)-2-phenyl-2H-indazole-5-carboxamide] had a pIC50 of 7.96. Molecule `NC(=O)c1ccc2nn(-c3ccccc3)c(NC(=O)c3cc(-c4ncccn4)c(C(F)(F)F)cc3F)c2n1` [Compound 80, 3-({[2-fluoro-5-pyrimidin-2-yl-4-(trifluoromethyl)phenyl]carbonyl}amino)-2-phenyl-2H-pyrazolo[4,3-b]pyridine-5-carboxamide] gave a pIC50 of 7.49. The result for `NC(=O)c1ccc2c(NC(=O)c3cc(-c4ccccn4)c(C(F)(F)F)cc3F)n(-c3ccccc3)nc2c1` [Compound 81, 3-({[2-fluoro-5-pyridin-2-yl-4-(trifluoromethyl)phenyl]carbonyl}amino)-2-phenyl-2H-indazole-6-carboxamide] reads 8.54; that for `Cn1ccc(-c2cc(C(=O)Nc3c4ccc(C(N)=O)cc4nn3-c3ccccc3)ccc2C(F)(F)F)n1` [Compound 82, 3-({[3-(1-methyl-1H-pyrazol-3-yl)-4-(trifluoromethyl)phenyl]carbonyl}amino)-2-phenyl-2H-indazole-6-carboxamide], 8.57; that for `NC(=O)c1ccc2c(NC(=O)c3cc(-c4ccccn4)c(C(F)(F)F)cc3Cl)n(-c3ccccc3)nc2c1` [Compound 83, 3-({[2-chloro-5-pyridin-2-yl-4-(trifluoromethyl)phenyl]carbonyl}amino)-2-phenyl-2H-indazole-6-carboxamide], 8.21. Regarding `NC(=O)c1cnc2c(NC(=O)c3cc(-c4ccccn4)c(C(F)(F)F)cc3F)n(-c3ccccc3)nc2c1` [Compound 84, 3-({[2-fluoro-5-pyridin-2-yl-4-(trifluoromethyl)phenyl]carbonyl}amino)-2-phenyl-2H-pyrazolo[4,3-b]pyridine-6-carboxamide], the pIC50 is 8.59. The result for `NC(=O)c1cnc2c(NC(=O)c3cc(-c4ccccn4)c(C(F)(F)F)cc3Cl)n(-c3ccccc3)nc2c1` [Compound 85, 3-({[2-chloro-5-pyridin-2-yl-4-(trifluoromethyl)phenyl]carbonyl}amino)-2-phenyl-2H-pyrazolo[4,3-b]pyridine-6-carboxamide] reads 8.48; that for `Cn1ccc(-c2cc(C(=O)Nc3c4ncc(C(N)=O)cc4nn3-c3ccccc3)ccc2C(F)(F)F)n1` [Compound 86, 3-({[3-(1-methyl-1H-pyrazol-3-yl)-4-(trifluoromethyl)phenyl]carbonyl}amino)-2-phenyl-2H-pyrazolo[4,3-b]pyridine-6-carboxamide], 8.55; that for `Cn1ccc(-c2cc(C(=O)Nc3c4ncc(C(N)=O)cc4nn3-c3ccccc3)c(F)cc2C(F)(F)F)n1` [Compound 87, 3-({[2-fluoro-5-(1-methyl-1H-pyrazol-3-yl)-4-(trifluoromethyl)phenyl]carbonyl}amino)-2-phenyl-2H-pyrazolo[4,3-b]pyridine-6-carboxamide], 9.20. Regarding `NC(=O)c1cnc2c(NC(=O)c3ccc(C(F)(F)F)c(-c4ncccn4)c3)n(-c3ccccc3)nc2c1` [Compound 88, 2-phenyl-3-({[3-pyrimidin-2-yl-4-(trifluoromethyl)phenyl]carbonyl}amino)-2H-pyrazolo[4,3-b]pyridine-6-carboxamide], the pIC50 was 7.89. The result for `NC(=O)c1cccc2c(NC(=O)c3cc(-c4ncccn4)c(C(F)(F)F)cc3F)n(-c3ccccc3)nc12` [Compound 89, 3-({[2-fluoro-5-pyrimidin-2-yl-4-(trifluoromethyl)phenyl]carbonyl}amino)-2-phenyl-2H-indazole-7-carboxamide] reads 7.96; that for `O=C(NCCO)c1ccc2c(NC(=O)c3cc(-c4ncccn4)c(C(F)(F)F)cc3Cl)n(-c3ccccc3)nc2c1` [Compound 90, 3-({[2-chloro-5-pyrimidin-2-yl-4-(trifluoromethyl)phenyl]carbonyl}amino)-N-(2-hydroxyethyl)-2-phenyl-2H-indazole-6-carboxamide], 7.85.

For the molecule `Cc1ccccc1-n1nc2cc(C(N)=O)cnc2c1NC(=O)c1cc(-c2ncccn2)c(C(F)(F)F)cc1F` [Compound 91, 3-({[2-fluoro-5-pyrimidin-2-yl-4-(trifluoromethyl)phenyl]carbonyl}amino)-2-(2-methylphenyl)-2H-pyrazolo[4,3-b]pyridine-6-carboxamide], the pIC50 is 7.28. The result for `O=C(NCCO)c1ccc2c(NC(=O)c3cc(-c4ncccn4)c(C(F)(F)F)cc3F)n(-c3ccccc3)nc2c1` [Compound 92, 3-({[2-fluoro-5-pyrimidin-2-yl-4-(trifluoromethyl)phenyl]carbonyl}amino)-N-(2-hydroxyethyl)-2-phenyl-2H-indazole-6-carboxamide] reads 7.96; that for `Cc1ccccc1-n1nc2cc(C(N)=O)ccc2c1NC(=O)c1cc(-c2ncccn2)c(C(F)(F)F)cc1F` [Compound 93, 3-({[2-fluoro-5-pyrimidin-2-yl-4-(trifluoromethyl)phenyl]carbonyl}amino)-2-(2-methylphenyl)-2H-indazole-6-carboxamide], 7.49.

The values are drawn from patent US9862707B2, “TrkA kinase inhibitors, compositions and methods thereof” (Merck Sharp & Dohme Corp., priority 2014, dated 2018).
